Columns and labels:
[1] = system: formalin-induced pain model in rats; experiment: Formalin pain model, nociceptive behaviors; format: in vivo, Sprague-Dawley rats
Procedure, shortened: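 Male Sprague-Dawley rats dosed intraperitoneally once daily on days −2 and −1 and 30 min before 2% formalin injection into the right hindpaw plantar surface. Lifting, licking and biting were timed by a blinded observer over 1 h, phase I and phase II, reported per 5-min period.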

TNFα = TNFα secretion by human white blood cells stimulated with PMA/ionomycin, synergy score; format: cell-based; settings: PBMC stimulated with PMA/Ionomycin
Procedure, shortened: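 Diluted human white blood cells stimulated with 10 ng/mL PMA and 750 ng/mL ionomycin (final) plus compound combinations at various concentrations, 16-18 h at 37 °C. Secreted TNFα measured by sandwich luminescent ELISA; synergy score is the dilution-weighted volume between measured and Loewe additive inhibition surfaces.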

Compound: CNCCC=C1c2ccccc2CCc2ccccc21 [Nortriptyline]
- Mean number of behaviors per 5 minute block ([1]; Experiment One, nortriptyline, 1 mg/kg, 5 minutes): 185.0 ± 30.0
- Mean number of behaviors per 5 minute block ([1]; Experiment One, nortriptyline, 1 mg/kg, 10 minutes): 26.0 ± 16.0
- Mean number of behaviors per 5 minute block ([1]; Experiment One, nortriptyline, 1 mg/kg, 15 minutes): 16.0 ± 16.0
- Mean number of behaviors per 5 minute block ([1]; Experiment One, nortriptyline, 1 mg/kg, 20 minutes): 33.0 ± 22.0
- Mean number of behaviors per 5 minute block ([1]; Experiment One, nortriptyline, 1 mg/kg, 25 minutes): 124.0 ± 40.0
- Mean number of behaviors per 5 minute block ([1]; Experiment One, nortriptyline, 1 mg/kg, 30 minutes): 170.0 ± 46.0
- Mean number of behaviors per 5 minute block ([1]; Experiment One, nortriptyline, 1 mg/kg, 35 minutes): 181.0 ± 47.0
- Mean number of behaviors per 5 minute block ([1]; Experiment One, nortriptyline, 1 mg/kg, 40 minutes): 168.0 ± 46.0
- Mean number of behaviors per 5 minute block ([1]; Experiment One, nortriptyline, 1 mg/kg, 45 minutes): 176.0 ± 45.0
- Mean number of behaviors per 5 minute block ([1]; Experiment One, nortriptyline, 1 mg/kg, 50 minutes): 191.0 ± 42.0
- Mean number of behaviors per 5 minute block ([1]; Experiment One, nortriptyline, 1 mg/kg, 55 minutes): 165.0 ± 41.0
- Mean number of behaviors per 5 minute block ([1]; Experiment One, nortriptyline, 1 mg/kg, 60 minutes): 89.0 ± 34.0
- Mean number of behaviors per 5 minute block ([1]; Experiment One, nortriptyline, 3 mg/kg, 5 minutes): 248.0 ± 10.6
- Mean number of behaviors per 5 minute block ([1]; Experiment One, nortriptyline, 3 mg/kg, 10 minutes): 36.0 ± 12.0
- Mean number of behaviors per 5 minute block ([1]; Experiment One, nortriptyline, 3 mg/kg, 15 minutes): 87.0 ± 32.8
- Mean number of behaviors per 5 minute block ([1]; Experiment One, nortriptyline, 3 mg/kg, 20 minutes): 159.0 ± 39.7
- Mean number of behaviors per 5 minute block ([1]; Experiment One, nortriptyline, 3 mg/kg, 25 minutes): 182.0 ± 36.3
- Mean number of behaviors per 5 minute block ([1]; Experiment One, nortriptyline, 3 mg/kg, 30 minutes): 231.0 ± 32.4
- Mean number of behaviors per 5 minute block ([1]; Experiment One, nortriptyline, 3 mg/kg, 35 minutes): 253.0 ± 30.7
- Mean number of behaviors per 5 minute block ([1]; Experiment One, nortriptyline, 3 mg/kg, 40 minutes): 253.0 ± 30.8
- Mean number of behaviors per 5 minute block ([1]; Experiment One, nortriptyline, 3 mg/kg, 45 minutes): 258.0 ± 28.3
- Mean number of behaviors per 5 minute block ([1]; Experiment One, nortriptyline, 3 mg/kg, 50 minutes): 212.0 ± 28.3
- Mean number of behaviors per 5 minute block ([1]; Experiment One, nortriptyline, 3 mg/kg, 55 minutes): 136.0 ± 40.3
- Mean number of behaviors per 5 minute block ([1]; Experiment One, nortriptyline, 3 mg/kg, 60 minutes): 94.0 ± 41.7
- Mean number of behaviors per 5 minute block ([1]; Experiment One, nortriptyline, 10 mg/kg, 5 minutes): 227.0 ± 19.3
- Mean number of behaviors per 5 minute block ([1]; Experiment One, nortriptyline, 10 mg/kg, 10 minutes): 30.0 ± 18.2
- Mean number of behaviors per 5 minute block ([1]; Experiment One, nortriptyline, 10 mg/kg, 15 minutes): 11.0 ± 6.1
- Mean number of behaviors per 5 minute block ([1]; Experiment One, nortriptyline, 10 mg/kg, 20 minutes): 39.0 ± 29.4
- Mean number of behaviors per 5 minute block ([1]; Experiment One, nortriptyline, 10 mg/kg, 25 minutes): 62.0 ± 38.5
- Mean number of behaviors per 5 minute block ([1]; Experiment One, nortriptyline, 10 mg/kg, 30 minutes): 60.0 ± 34.4
- Mean number of behaviors per 5 minute block ([1]; Experiment One, nortriptyline, 10 mg/kg, 35 minutes): 99.0 ± 43.0
- Mean number of behaviors per 5 minute block ([1]; Experiment One, nortriptyline, 10 mg/kg, 40 minutes): 109.0 ± 44.0
- Mean number of behaviors per 5 minute block ([1]; Experiment One, nortriptyline, 10 mg/kg, 45 minutes): 122.0 ± 43.2
- Mean number of behaviors per 5 minute block ([1]; Experiment One, nortriptyline, 10 mg/kg, 50 minutes): 96.0 ± 39.1
- Mean number of behaviors per 5 minute block ([1]; Experiment One, nortriptyline, 10 mg/kg, 55 minutes): 140.0 ± 42.6
- Mean number of behaviors per 5 minute block ([1]; Experiment One, nortriptyline, 10 mg/kg, 60 minutes): 180.0 ± 40.3
- Mean number of behaviors per 5 minute block ([1]; Experiment One, nortriptyline, 20 mg/kg, 5 minutes): 158.0 ± 31.6
- Mean number of behaviors per 5 minute block ([1]; Experiment One, nortriptyline, 20 mg/kg, 10 minutes): 21.0 ± 12.8
- Mean number of behaviors per 5 minute block ([1]; Experiment One, nortriptyline, 20 mg/kg, 15 minutes): 0.0 ± 0.0
- Mean number of behaviors per 5 minute block ([1]; Experiment One, nortriptyline, 20 mg/kg, 20 minutes): 9.0 ± 8.8
- Mean number of behaviors per 5 minute block ([1]; Experiment One, nortriptyline, 20 mg/kg, 25 minutes): 30.0 ± 30.0
- Mean number of behaviors per 5 minute block ([1]; Experiment One, nortriptyline, 20 mg/kg, 30 minutes): 36.0 ± 29.9
- Mean number of behaviors per 5 minute block ([1]; Experiment One, nortriptyline, 20 mg/kg, 35 minutes): 33.0 ± 29.2
- Mean number of behaviors per 5 minute block ([1]; Experiment One, nortriptyline, 20 mg/kg, 40 minutes): 29.0 ± 29.3
- Mean number of behaviors per 5 minute block ([1]; Experiment One, nortriptyline, 20 mg/kg, 45 minutes): 33.0 ± 26.9
- Mean number of behaviors per 5 minute block ([1]; Experiment One, nortriptyline, 20 mg/kg, 50 minutes): 46.0 ± 28.2
- Mean number of behaviors per 5 minute block ([1]; Experiment One, nortriptyline, 20 mg/kg, 55 minutes): 47.0 ± 29.4
- Mean number of behaviors per 5 minute block ([1]; Experiment One, nortriptyline, 20 mg/kg, 60 minutes): 68.0 ± 37.6
- Mean number of behaviors per 5 minute block ([1]; Experiment Two, 1 mg/kg, 5 minutes): 232.0 ± 16.5
- Mean number of behaviors per 5 minute block ([1]; Experiment Two, 1 mg/kg, 10 minutes): 13.0 ± 4.9
- Mean number of behaviors per 5 minute block ([1]; Experiment Two, 1 mg/kg, 15 minutes): 27.0 ± 16.8
- Mean number of behaviors per 5 minute block ([1]; Experiment Two, 1 mg/kg, 20 minutes): 113.0 ± 44.2
- Mean number of behaviors per 5 minute block ([1]; Experiment Two, 1 mg/kg, 25 minutes): 165.0 ± 45.1
- Mean number of behaviors per 5 minute block ([1]; Experiment Two, 1 mg/kg, 30 minutes): 234.0 ± 26.3
- Mean number of behaviors per 5 minute block ([1]; Experiment Two, 1 mg/kg, 35 minutes): 270.0 ± 10.6
- Mean number of behaviors per 5 minute block ([1]; Experiment Two, 1 mg/kg, 40 minutes): 281.0 ± 10.4
- Mean number of behaviors per 5 minute block ([1]; Experiment Two, 1 mg/kg, 45 minutes): 287.0 ± 5.5
- Mean number of behaviors per 5 minute block ([1]; Experiment Two, 1 mg/kg, 50 minutes): 266.0 ± 16.6
- Mean number of behaviors per 5 minute block ([1]; Experiment Two, 1 mg/kg, 55 minutes): 192.0 ± 38.3
- Mean number of behaviors per 5 minute block ([1]; Experiment Two, 1 mg/kg, 60 minutes): 170.0 ± 46.6
- Mean number of behaviors per 5 minute block ([1]; Experiment Two, 3 mg/kg, 5 minutes): 228.0 ± 25.1
- Mean number of behaviors per 5 minute block ([1]; Experiment Two, 3 mg/kg, 10 minutes): 28.0 ± 12.3
- Mean number of behaviors per 5 minute block ([1]; Experiment Two, 3 mg/kg, 15 minutes): 10.0 ± 6.2
- Mean number of behaviors per 5 minute block ([1]; Experiment Two, 3 mg/kg, 20 minutes): 96.0 ± 43.8
- Mean number of behaviors per 5 minute block ([1]; Experiment Two, 3 mg/kg, 25 minutes): 162.0 ± 44.0
- Mean number of behaviors per 5 minute block ([1]; Experiment Two, 3 mg/kg, 30 minutes): 200.0 ± 45.0
- Mean number of behaviors per 5 minute block ([1]; Experiment Two, 3 mg/kg, 35 minutes): 217.0 ± 47.8
- Mean number of behaviors per 5 minute block ([1]; Experiment Two, 3 mg/kg, 40 minutes): 216.0 ± 47.3
- Mean number of behaviors per 5 minute block ([1]; Experiment Two, 3 mg/kg, 45 minutes): 220.0 ± 48.1
- Mean number of behaviors per 5 minute block ([1]; Experiment Two, 3 mg/kg, 50 minutes): 224.0 ± 42.0
- Mean number of behaviors per 5 minute block ([1]; Experiment Two, 3 mg/kg, 55 minutes): 247.0 ± 36.2
- Mean number of behaviors per 5 minute block ([1]; Experiment Two, 3 mg/kg, 60 minutes): 188.0 ± 36.8
- Synergy Score based on TNF-α inhibition (TNFα; combination with Betamethasone): 0.83
- Synergy Score based on TNF-α inhibition (TNFα; combination with Budesonide): 1.6
- Synergy Score based on TNF-α inhibition (TNFα; combination with Dexamethasone): 1.7
- Synergy Score based on TNF-α inhibition (TNFα; combination with Hydrocortisone): 0.72
- Synergy Score based on TNF-α inhibition (TNFα; combination with Prednisolone): 1.1
- Synergy Score based on TNF-α inhibition (TNFα; combination with Triamcinolone): 0.88

Reference: patent US20080280862A1, “Methods, compositions, and kits for the treatment of pain” (priority 2007, published 2008)
